Measurements as given in ChEMBL document CHEMBL1201862, “PubChem BioAssay data set” (2004).
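Interpolation was linear, between the two tested concentrations surrounding the appropriate level; five concentrations were tested over 48 hours in 96-well plates. Abbreviation: GI50, concentration required for 50% inhibition of growth.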 Activity calls are given as the source filed them. No stated cut-off is given here; in the data, active = GI50 up to about 1.1 µM and inactive = higher.

What was measured:
Test in all cases: NCI anticancer screen, dose series, 48 h
786-0 = system: 786-0
A498 = system: A498
A549 = system: A549
ACHN = system: ACHN
BT-549 = system: BT-549
CAKI-1 = system: CAKI-1
CCRF-CEM = system: CCRF-CEM
COLO 205 = system: COLO 205
DU-145 = system: DU-145
EKVX = system: EKVX
HCT-116 = system: HCT-116
HCT-15 = system: HCT-15
HL-60 = system: HL-60
HOP-62 = system: HOP-62
HT-29 = system: HT-29
Hs-578T = system: Hs-578T
IGROV-1 = system: IGROV-1
K562 = system: K562
KM12 = system: KM12
LOX IMVI = system: LOX IMVI
M14 = system: M14
MCF7 = system: MCF7
MDA-MB-231 = system: MDA-MB-231
MDA-MB-435 = system: MDA-MB-435
MDA-N = system: MDA-N
MOLT-4 = system: MOLT-4
NCI-H226 = system: NCI-H226
NCI-H23 = system: NCI-H23
NCI-H460 = system: NCI-H460
NCI-H522 = system: NCI-H522
NCI/ADR-RES = system: NCI/ADR-RES
OVCAR-3 = system: OVCAR-3
OVCAR-4 = system: OVCAR-4
OVCAR-5 = system: OVCAR-5
OVCAR-8 = system: OVCAR-8
PC-3 = system: PC-3
RPMI-8226 = system: RPMI-8226
SF-268 = system: SF-268
SF-295 = system: SF-295
SF-539 = system: SF-539
SK-MEL-28 = system: SK-MEL-28
SK-MEL-2 = system: SK-MEL-2
SK-MEL-5 = system: SK-MEL-5
SK-OV-3 = system: SK-OV-3
SN12C = system: SN12C
SNB-19 = system: SNB-19
SNB-75 = system: SNB-75
SR = system: SR
SW-620 = system: SW-620
T47D = system: T47D
TK-10 = system: TK-10
U-251 = system: U-251
UACC-257 = system: UACC-257
UACC-62 = system: UACC-62
UO-31 = system: UO-31
HCC 2998 = system: HCC 2998
Malme-3M = system: Malme-3M
RXF 393 = system: RXF 393

Structure (SMILES): Nc1ncc2ncn(C3CCC(CO)O3)c2n1 (stereo unspecified)
- GI50 (786-0): > 100 µM (inactive)
- GI50 (A498): 88.7 µM (inactive)
- GI50 (A549): > 100 µM (inactive)
- GI50 (ACHN): > 100 µM (inactive)
- GI50 (BT-549): > 100 µM (inactive)
- GI50 (CAKI-1): > 100 µM (inactive)
- GI50 (CCRF-CEM): > 100 µM (inactive)
- GI50 (COLO 205): > 100 µM (inactive)
- GI50 (DU-145): > 100 µM (inactive)
- GI50 (EKVX): > 100 µM (inactive)
- GI50 (HCT-116): > 100 µM (inactive)
- GI50 (HCT-15): > 100 µM
- GI50 (HL-60): > 100 µM (inactive)
- GI50 (HOP-62): > 100 µM (inactive)
- GI50 (HT-29): > 100 µM (inactive)
- GI50 (Hs-578T): > 100 µM (inactive)
- GI50 (IGROV-1): > 100 µM (inactive)
- GI50 (K562): > 100 µM (inactive)
- GI50 (KM12): > 100 µM (inactive)
- GI50 (LOX IMVI): > 100 µM (inactive)
- GI50 (M14): > 100 µM (inactive)
- GI50 (MCF7): > 100 µM (inactive)
- GI50 (MDA-MB-231): > 100 µM (inactive)
- GI50 (MDA-MB-435): > 100 µM (inactive)
- GI50 (MDA-N): > 100 µM (inactive)
- GI50 (MOLT-4): > 100 µM (inactive)
- GI50 (NCI-H226): > 100 µM (inactive)
- GI50 (NCI-H23): > 100 µM (inactive)
- GI50 (NCI-H460): > 100 µM (inactive)
- GI50 (NCI-H522): > 100 µM (inactive)
- GI50 (NCI/ADR-RES): > 100 µM (inactive)
- GI50 (OVCAR-3): > 100 µM (inactive)
- GI50 (OVCAR-4): > 100 µM (inactive)
- GI50 (OVCAR-5): > 100 µM (inactive)
- GI50 (OVCAR-8): > 100 µM (inactive)
- GI50 (PC-3): > 100 µM (inactive)
- GI50 (RPMI-8226): > 100 µM (inactive)
- GI50 (SF-268): > 100 µM (inactive)
- GI50 (SF-295): > 100 µM (inactive)
- GI50 (SF-539): > 100 µM (inactive)
- GI50 (SK-MEL-28): > 100 µM (inactive)
- GI50 (SK-MEL-2): > 100 µM (inactive)
- GI50 (SK-MEL-5): > 100 µM (inactive)
- GI50 (SK-OV-3): > 100 µM (inactive)
- GI50 (SN12C): > 100 µM (inactive)
- GI50 (SNB-19): > 100 µM (inactive)
- GI50 (SNB-75): > 100 µM (inactive)
- GI50 (SR): > 100 µM (inactive)
- GI50 (SW-620): > 100 µM (inactive)
- GI50 (T47D): > 100 µM (inactive)
- GI50 (TK-10): > 100 µM (inactive)
- GI50 (U-251): > 100 µM (inactive)
- GI50 (UACC-257): > 100 µM (inactive)
- GI50 (UACC-62): > 100 µM (inactive)
- GI50 (UO-31): > 100 µM (inactive)

Structure (SMILES): CCc1ccc2c(c1)/C(=C1/Nc3ccccc3/C1=N/O)C(=O)N2
- GI50 (786-0): 6.61 µM (inactive)
- GI50 (A498): 4.03 µM (inactive)
- GI50 (A549): 6.37 µM (inactive)
- GI50 (ACHN): 3.84 µM (inactive)
- GI50 (BT-549): 8 µM (inactive)
- GI50 (CAKI-1): 2.24 µM (inactive)
- GI50 (CCRF-CEM): 3.21 µM (inactive)
- GI50 (COLO 205): 8.83 µM (inactive)
- GI50 (DU-145): 6.49 µM (inactive)
- GI50 (EKVX): 5.19 µM (inactive)
- GI50 (HCC 2998): 3.3 µM (inactive)
- GI50 (HCT-116): 3.27 µM (inactive)
- GI50 (HCT-15): 3.53 µM
- GI50 (HOP-62): 10.6 µM (inactive)
- GI50 (HT-29): 4.71 µM (inactive)
- GI50 (Hs-578T): 4.57 µM (inactive)
- GI50 (IGROV-1): 5.08 µM (inactive)
- GI50 (K562): 4.5 µM (inactive)
- GI50 (KM12): 0.117 µM (active)
- GI50 (LOX IMVI): 6.76 µM (inactive)
- GI50 (M14): 12.6 µM (inactive)
- GI50 (MCF7): 1.66 µM (inactive)
- GI50 (MDA-MB-231): 20 µM (inactive)
- GI50 (MDA-MB-435): 7.55 µM (inactive)
- GI50 (MDA-N): 7.53 µM (inactive)
- GI50 (MOLT-4): 4.3 µM (inactive)
- GI50 (Malme-3M): 3.72 µM (inactive)
- GI50 (NCI-H226): 12 µM (inactive)
- GI50 (NCI-H23): 5.18 µM (inactive)
- GI50 (NCI-H460): 5.11 µM (inactive)
- GI50 (NCI-H522): 3.43 µM (inactive)
- GI50 (NCI/ADR-RES): 6.84 µM (inactive)
- GI50 (OVCAR-3): 3.4 µM (inactive)
- GI50 (OVCAR-4): 6.67 µM (inactive)
- GI50 (OVCAR-5): 18.6 µM (inactive)
- GI50 (OVCAR-8): 6.55 µM (inactive)
- GI50 (PC-3): 6.85 µM (inactive)
- GI50 (RPMI-8226): 5.15 µM (inactive)
- GI50 (RXF 393): 2.81 µM (inactive)
- GI50 (SF-268): 8.22 µM (inactive)
- GI50 (SF-295): 6.25 µM (inactive)
- GI50 (SK-MEL-28): 12.9 µM (inactive)
- GI50 (SK-MEL-2): 4.38 µM (inactive)
- GI50 (SK-MEL-5): 3.7 µM (inactive)
- GI50 (SK-OV-3): 2.44 µM (inactive)
- GI50 (SN12C): 5.61 µM (inactive)
- GI50 (SNB-19): 14.7 µM (inactive)
- GI50 (SNB-75): 11.8 µM (inactive)
- GI50 (SR): 3.29 µM (inactive)
- GI50 (SW-620): 4.53 µM (inactive)
- GI50 (T47D): 6.28 µM (inactive)
- GI50 (TK-10): 11.5 µM (inactive)
- GI50 (U-251): 9.31 µM (inactive)
- GI50 (UACC-257): 15.2 µM (inactive)
- GI50 (UACC-62): 11 µM (inactive)
- GI50 (UO-31): 4.12 µM (inactive)
